Values quoted from earlier work as cited in patent US20200276209A1, “METHODS OF TREATING EPILEPSY OR STATUS EPILEPTICUS” (Sage Therapeutics, Inc., priority 2017, published 2020).
Where two headings read alike, the source gives them in different places.

Tested on: status epilepticus

SMILES	patients who did not respond to first line treatment (intramuscular (IM) treatment) [%]	patients who did not respond to first line treatment (intravenous (IV) treatment) [%]
Cc1ncc2n1-c1ccc(Cl)cc1C(c1ccccc1F)=NC2 [midazolam]	26.6	–
O=C1Nc2ccc(Cl)cc2C(c2ccccc2Cl)=NC1O (centres unmarked) [lorazepam]	–	36.6
